Measurements published in patent US20020026053A1, “Novel 3-(substituted) -2- indolinones compounds and use thereof as inhibitors of protein kinase activity” (priority 1997, published 2002).

These compounds were tested on PDGF-R (assay: PDGF-R Assay (cellular ELISA, U1242 cells)).
Assay type: cell-based
Design: concentration or dose not given beside the values
Outline: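 Cellular ELISA for receptor autophosphorylation: after 2 hr test-compound treatment of serum-free U1242 cells at 37°C, ligand is added for 5–10 min, cells are lysed (HNTG) and receptor captured by specific antibody. Anti-phosphotyrosine plus secondary antibody with ABTS colour read at 410/630 nm, compared with compound-free control cells.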

Row | Compound | PDGF Kinase % Inhibition (P.119) [%]
1 | O=C1Nc2ccc(I)cc2C1=Cc1cc(Cl)cc(Cl)c1O [10734/B03] | 13.0
2 | CNS(=O)(=O)c1ccc2c(c1)C(=Cc1cc(Cl)cc(Cl)c1O)C(=O)N2 [10734/D03] | 24.1
3 | Cc1c(Br)ccc2c1C(=Cc1cc(Cl)cc(Cl)c1O)C(=O)N2 [10734/C03] | 24.5
4 | Cc1c(Br)ccc2c1C(=Cc1cc(Br)cc(Br)c1O)C(=O)N2 [10734/C07] | 32.0
5 | O=C1Nc2ccc(S(=O)(=O)Nc3ccc(C(F)(F)F)cc3)cc2C1=Cc1cc(Br)cc(Br)c1O [10734/E07] | 8.2
6 | CNS(=O)(=O)c1ccc2c(c1)C(=Cc1ccc(Br)s1)C(=O)N2 [10734/D11] | 17.0
7 | CC(C)(C)c1ccc(C=C2C(=O)Nc3c(Br)cc(Br)cc32)cc1 [10734/A10] | 26.3
8 | O=C1Nc2ccc(I)cc2C1=Cc1ccc([N+](=O)[O-])cc1 [10734/B06] | 0.2
9 | CCN(CC)c1ccc(C=C2C(=O)Nc3ccc(CCCl)cc32)c(O)c1 [10734/G05] | 2.9
10 | O=C1Nc2ccc(S(=O)(=O)N3CCOCC3)cc2C1=Cc1cc(Br)cc(Br)c1O [10734/F07] | −5.1
11 | CC(C)(C)c1ccc(C=C2C(=O)Nc3ccc(CCCl)cc32)cc1 [10734/G10] | 9.9
12 | O=C1Nc2ccc(S(=O)(=O)Nc3ccc(C(F)(F)F)cc3)cc2C1=Cc1ccc(O)c(Br)c1 [10734/E09] | 1.1
13 | CCOc1cccc(C=C2C(=O)Nc3ccc(S(=O)(=O)N4CCOCC4)cc32)c1O [10734/F02] | 10.4
14 | O=C1Nc2ccc(S(=O)(=O)N3CCOCC3)cc2C1=Cc1cccc(F)c1O [10734/F08] | −6.0
15 | CC(C)(C)c1ccc(C=C2C(=O)Nc3ccc(S(=O)(=O)N4CCOCC4)cc32)cc1 [10734/F10] | 25.8
16 | CCN(CC)c1ccc(C=C2C(=O)Nc3ccc(S(=O)(=O)N4CCOCC4)cc32)c(O)c1 [10734/F05] | −1.1
17 | O=C1Nc2ccc(S(=O)(=O)N3CCOCC3)cc2C1=Cc1ccc([N+](=O)[O-])cc1 [10734/F06] | −21.4
18 | O=C1Nc2ccc(S(=O)(=O)Nc3ccc(C(F)(F)F)cc3)cc2C1=Cc1ccc([N+](=O)[O-])cc1 [10734/E06] | 13.5
19 | O=C1Nc2ccc(I)cc2C1=Cc1cccc(F)c1O [10734/B08] | −2.4
20 | O=C1Nc2ccc(S(=O)(=O)N3CCOCC3)cc2C1=Cc1cc(Cl)cc(Cl)c1O [10734/F03] | −24.1
21 | O=C1Nc2c(Br)cc(Br)cc2C1=Cc1ccc(O)c(Br)c1 [10734/A09] | −9.5
22 | Cc1c(Br)ccc2c1C(=Cc1cccc(F)c1O)C(=O)N2 [10734/C08] | 5.5
23 | O=C1Nc2ccc(I)cc2C1=Cc1ccc(O)c(Br)c1 [10734/B09] | 12.6
24 | O=C1Nc2ccc(I)cc2C1=Cc1cc(Cl)ccc1O [10734/B04] | 14.4
25 | Cc1c(Br)ccc2c1C(=Cc1ccc(Br)s1)C(=O)N2 [10734/C11] | 9.1

Row | Compound | PDGF Kinase % Inhibition (P.119) [%]
26 | CCN(CC)c1ccc(C=C2C(=O)Nc3c(Br)cc(Br)cc32)c(O)c1 [10734/A05] | 2.9
27 | Cc1c(Br)ccc2c1C(=Cc1ccc([N+](=O)[O-])cc1)C(=O)N2 [10734/C06] | −0.2
28 | O=C1Nc2c(Br)cc(Br)cc2C1=Cc1cc(Cl)cc(Cl)c1O [10734/A03] | 22.3
29 | O=C1Nc2ccc(CCCl)cc2C1=Cc1cccc(F)c1O [10734/G08] | 0.2
30 | O=C1Nc2ccc(S(=O)(=O)Nc3ccc(C(F)(F)F)cc3)cc2C1=Cc1cccc(F)c1O [10734/E08] | 13.0
31 | CCOc1cccc(C=C2C(=O)Nc3c(Br)cc(Br)c(C)c32)c1O [10734/H02] | −10.8
32 | O=C1Nc2ccc(I)cc2C1=Cc1cc(Br)cc(Br)c1O [10734/B07] | 18.8
33 | O=C1Nc2c(Br)cc(Br)cc2C1=Cc1cc(Cl)ccc1O [10734/A04] | 11.7
34 | CCN(CC)c1ccc(C=C2C(=O)Nc3ccc(Br)c(C)c32)c(O)c1 [10734/C05] | 3.8
35 | O=C1Nc2ccc(I)cc2C1=Cc1ccc(Br)s1 [10734/B11] | −5.5
36 | O=C1Nc2ccc(S(=O)(=O)Nc3ccc(C(F)(F)F)cc3)cc2C1=Cc1cc(Cl)cc(Cl)c1O [10734/E03] | 27.2
37 | O=C1Nc2ccc(CCCl)cc2C1=Cc1cc(Cl)ccc1O [10734/G04] | 16.1
38 | CNS(=O)(=O)c1ccc2c(c1)C(=Cc1cc(Br)cc(Br)c1O)C(=O)N2 [10734/D07] | 28.1
39 | O=C1Nc2c(Br)cc(Br)cc2C1=Cc1cccc(F)c1O [10734/A08] | 9.1
40 | O=C1Nc2c(Br)cc(Br)cc2C1=Cc1ccc(Br)s1 [10734/A11] | 5.5
41 | CCOc1cccc(C=C2C(=O)Nc3ccc(I)cc32)c1O [10734/B02] | −2.9
42 | CCOc1cccc(C=C2C(=O)Nc3ccc(Br)c(C)c32)c1O [10734/C02] | 36.0
43 | CCN(CC)c1ccc(C=C2C(=O)Nc3ccc(S(=O)(=O)Nc4ccc(C(F)(F)F)cc4)cc32)c(O)c1 [10734/E05] | 17.9
44 | CNS(=O)(=O)c1ccc2c(c1)C(=Cc1cc(Cl)ccc1O)C(=O)N2 [10734/D04] | 13.5
45 | Cc1c(Br)cc(Br)c2c1C(=Cc1cc(Cl)cc(Cl)c1O)C(=O)N2 [10734/H03] | 8.6
46 | O=C1Nc2ccc(S(=O)(=O)Nc3ccc(C(F)(F)F)cc3)cc2C1=Cc1ccc(Br)s1 [10734/E11] | 16.1
47 | O=C1Nc2ccc(CCCl)cc2C1=Cc1cc(Br)cc(Br)c1O [10734/G07] | −25.0
48 | CCN(CC)c1ccc(C=C2C(=O)Nc3ccc(S(=O)(=O)NC)cc32)c(O)c1 [10734/D05] | 8.2
49 | CCOc1cccc(C=C2C(=O)Nc3ccc(CCCl)cc32)c1O [10734/G02] | 14.8
50 | CNS(=O)(=O)c1ccc2c(c1)C(=Cc1ccc(O)c(Br)c1)C(=O)N2 [10734/D09] | 42.2

Row | Compound | PDGF Kinase % Inhibition (P.119) [%]
51 | CNS(=O)(=O)c1ccc2c(c1)C(=Cc1ccc([N+](=O)[O-])cc1)C(=O)N2 [10734/D06] | −9.1
52 | CCOc1cccc(C=C2C(=O)Nc3ccc(S(=O)(=O)Nc4ccc(C(F)(F)F)cc4)cc32)c1O [10734/E02] | 50.1
53 | Cc1c(Br)cc(Br)c2c1C(=Cc1cc(Cl)ccc1O)C(=O)N2 [10734/H04] | 6.0
54 | CCOc1cccc(C=C2C(=O)Nc3c(Br)cc(Br)cc32)c1O [10734/A02] | −3.8
55 | O=C1Nc2ccc(CCCl)cc2C1=Cc1ccc([N+](=O)[O-])cc1 [10734/G06] | −18.8
56 | O=C1Nc2ccc(CCCl)cc2C1=Cc1ccc(O)c(Br)c1 [10734/G09] | −7.7
57 | CNS(=O)(=O)c1ccc2c(c1)C(=Cc1cccc(F)c1O)C(=O)N2 [10734/D08] | 2.0
58 | Cc1c(Br)ccc2c1C(=Cc1ccc(C(C)(C)C)cc1)C(=O)N2 [10734/C10] | 17.4
59 | Cc1c(Br)ccc2c1C(=Cc1ccc(O)c(Br)c1)C(=O)N2 [10734/C09] | 11.3
60 | O=C1Nc2ccc(S(=O)(=O)N3CCOCC3)cc2C1=Cc1ccc(O)c(Br)c1 [10734/F09] | −17.4
61 | O=C1Nc2ccc(S(=O)(=O)N3CCOCC3)cc2C1=Cc1cc(Cl)ccc1O [10734/F04] | 25.0
62 | O=C1Nc2ccc(CCCl)cc2C1=Cc1ccc(Br)s1 [10734/G11] | −25.4
63 | CC(C)(C)c1ccc(C=C2C(=O)Nc3ccc(I)cc32)cc1 [10734/B10] | 7.7
64 | CCN(CC)c1ccc(C=C2C(=O)Nc3ccc(I)cc32)c(O)c1 [10734/B05] | 56.3
65 | O=C1Nc2c(Br)cc(Br)cc2C1=Cc1ccc([N+](=O)[O-])cc1 [10734/A06] | −9.9
66 | O=C1Nc2ccc(S(=O)(=O)N3CCOCC3)cc2C1=Cc1ccc(Br)s1 [10734/F11] | 16.1
67 | CC(C)(C)c1ccc(C=C2C(=O)Nc3ccc(S(=O)(=O)Nc4ccc(C(F)(F)F)cc4)cc32)cc1 [10734/E10] | 29.8
68 | O=C1Nc2ccc(CCCl)cc2C1=Cc1cc(Cl)cc(Cl)c1O [10734/G03] | −3.8
69 | Cc1c(Br)ccc2c1C(=Cc1cc(Cl)ccc1O)C(=O)N2 [10734/C04] | 24.5
70 | CCOc1cccc(C=C2C(=O)Nc3ccc(S(=O)(=O)NC)cc32)c1O [10734/D02] | 6.4
71 | O=C1Nc2c(Br)cc(Br)cc2C1=Cc1cc(Br)cc(Br)c1O [10734/A07] | 21.9
72 | O=C1Nc2ccc(S(=O)(=O)Nc3ccc(C(F)(F)F)cc3)cc2C1=Cc1cc(Cl)ccc1O [10734/E04] | 26.7
73 | CNS(=O)(=O)c1ccc2c(c1)C(=Cc1ccc(C(C)(C)C)cc1)C(=O)N2 [10734/D10] | 9.9
